Laboratory results: ChEMBL document CHEMBL1140243, “Synthesis and SAR of 2,3-diarylpyrrole inhibitors of parasite cGMP-dependent protein kinase as novel anticoccidial agents” (Bioorg Med Chem Lett, 2005)

What was measured:
Format in all cases: functional
Design in all cases: scale not given: the % may be the effect or the level left
[1] = species on record: Gallus gallus; assay: Anticoccidial activity (percent reduction in oocyst production) against Eimeria brunetti in chickens at 66 ppm; Range = 50-79 %
[2] = species on record: Gallus gallus; assay: Anticoccidial activity (percent reduction in oocyst production) against Eimeria acervulina in chickens at 66 ppm; Range = 50-79 %
[3] = species on record: Gallus gallus; assay: Anticoccidial activity (percent reduction in oocyst production) against Eimeria necatrix in chickens at 66 ppm; Range = 50-79 %
[4] = species on record: Gallus gallus; assay: Anticoccidial activity (percent reduction in oocyst production) against Eimeria maxima in chickens at 66 ppm; Range = 50-79 %
[5] = species on record: Gallus gallus; assay: Anticoccidial activity (percent reduction in oocyst production) against Eimeria mivati in chickens at 66 ppm; Range = 50-79 %
[6] = species on record: Gallus gallus; assay: Anticoccidial activity (percent reduction in oocyst production) against Eimeria mitis in chickens at 66 ppm; Range = 50-79 %
[7] = species on record: Gallus gallus; assay: Anticoccidial activity (percent reduction in oocyst production) against Eimeria praecox in chickens at 66 ppm; Range = 50-79 %
[8] = species on record: Gallus gallus; assay: Anticoccidial activity (percent reduction in oocyst production) against Eimeria tenella in chickens at 66 ppm; Range = 50-79 %

Measured: Activity

CC[C@@H](C(=O)[C@@H](C)[C@@H](O)[C@H](C)[C@@H]1O[C@@H]([C@@H](CC)C(=O)O)CC[C@@H]1C)[C@H]1O[C@]2(C=C[C@@H](O)[C@]3(CC[C@@](C)([C@H]4CC[C@](O)(CC)[C@H](C)O4)O3)O2)[C@H](C)C[C@@H]1C [SALINOMYCIN]
<79%: all assays above
